Data reported in patent US10336768B2, “Pyrimidine compounds and methods using the same” (Yuma Therapeutics, Inc., priority 2014, dated 2019).
Like-named read-outs stand apart in the source and are kept apart here.

Test system: T1, His-tagged-Hsp90
T1 construct: fused on or other part: His tag (captured on Ni2+-coated beads)
Assay: Hsp90 biochemical assay (AlphaLISA)
Format: binding
Method: This assay employs biotinylated geldanamycin, His-tagged-Hsp90, and Ni^+2 coated beads. This assay is homogenous and miniaturized to 384-well plates. Measurement of binding activity was performed on an Envision reader. […] This assay is the primary assay for evaluating compounds of the invention.

[1] = IC50 class, AlphaLISA (primary assay), read-out: Hsp90 inhibitory activity

IC50 (known Hsp90 inhibitor, biotinylated geldanamycin, read-out: IC50 (AlphaLISA assay validation))	Compound	IC50 [1]
–	CNC(=O)c1cc2c(-c3c(Cl)cc(Cl)c4c3CCO4)nc(N)nc2s1 [compound 63, 2-amino-4-(5,7-dichloro-2,3-dihydrobenzofuran-4-yl)-N-methylthieno[2,3-d]pyrimidine-6-carboxamide]	< 1000 nM
–	CON(C)C(=O)c1cc2c(-c3c(Cl)cc(Cl)c4c3CCO4)nc(N)nc2s1 [compound 75, 2-amino-4-(5,7-dichloro-2,3-dihydrobenzofuran-4-yl)-N-methoxy-N-methylthieno[2,3-d]pyrimidine-6-carboxamide]	< 1000 nM
–	COc1cc(-c2cc(Cl)nc(N)n2)ccc1Cl [Compound 79]	< 1000 nM
–	Nc1nc(-c2c(Cl)cc(Cl)c3c2CCO3)c2cc(C(=O)NC3COC3)sc2n1 [compound 67, 2-amino-4-(5,7-dichloro-2,3-dihydrobenzofuran-4-yl)-N-(oxetan-3-yl)thieno[2,3-d]pyrimidine-6-carboxamide]	< 1000 nM
–	CCNC(=O)N1Cc2nc(N)nc(-c3c(Cl)cc(Cl)c4c3CCO4)c2C1 [compound 17]	> 10000 nM
–	Nc1nc(-c2c(Cl)cc(Cl)c3c2CCO3)c2cc(C(=O)NC3CC3)sc2n1 [compound 62, 2-amino-N-cyclopropyl-4-(5,7-dichloro-2,3-dihydrobenzofuran-4-yl)thieno[2,3-d]pyrimidine-6-carboxamide]	< 1000 nM
60 nM	CC(C)NCCCn1c(Sc2cc3c(cc2I)OCO3)nc2c(N)ncnc21 [PU-H71, reference compound]	–
–	CNc1cc(-c2c(Cl)cc(Cl)c3c2CCO3)nc(N)n1 [compound 33]	4000 to 10000 nM
–	COc1cc(-c2cc(C)nc(N)n2)c(Cl)cc1Cl [compound 38]	1000 to 4000 nM
–	COc1cc(-c2nc(N)nc(SC)n2)c(Cl)cc1Cl [compound 34]	< 1000 nM
–	CN(C(=O)c1cc2c(-c3c(Cl)cc(Cl)c4c3CCO4)nc(N)nc2s1)C1CC1 [compound 74, 2-amino-N-cyclopropyl-4-(5,7-dichloro-2,3-dihydrobenzofuran-4-yl)-N-methylthieno[2,3-d]pyrimidine-6-carboxamide]	1000 to 4000 nM
–	CN(C(=O)c1cc2c(-c3c(Cl)cc(Cl)c4c3CCO4)nc(N)nc2s1)C1COC1 [compound 72, 2-amino-4-(5,7-dichloro-2,3-dihydrobenzofuran-4-yl)-N-methyl-N-(oxetan-3-yl)thieno[2,3-d]pyrimidine-6-carboxamide]	1000 to 4000 nM
–	CCNC(=O)Cn1ccc2nc(N)nc(-c3c(Cl)cc(Cl)c4c3CCO4)c21 [compound 31]	> 10000 nM
–	Nc1nc(-c2c(Cl)cc(Cl)c3c2CCO3)c2cc(C(=O)N3CCCC3)sc2n1 [compound 69, (2-amino-4-(5,7-dichloro-2,3-dihydrobenzofuran-4-yl)thieno[2,3-d]pyrimidin-6-yl)(pyrrolidin-1-yl)methanone]	1000 to 4000 nM
–	COc1cc(-c2cc(C)nc(N)n2)c(C(F)(F)F)cc1Cl [compound 1]	> 10000 nM
–	CCNC(=O)Cn1ccc2c(-c3c(Cl)cc(Cl)c4c3CCO4)nc(N)nc21 [compound 32]	> 10000 nM
–	COc1cc(-c2nc(N)nc3c2CCC3)c(Cl)cc1F [compound 11, 4-(2-chloro-4-fluoro-5-methoxyphenyl)-6,7-dihydro-5H-cyclopenta[d]pyrimidin-2-amine]	4000 to 10000 nM
–	CCC(=O)c1cc2c(-c3c(Cl)cc(Cl)c4c3CCO4)nc(N)nc2s1 [compound 76, 1-(2-amino-4-(5,7-dichloro-2,3-dihydrobenzofuran-4-yl)thieno[2,3-d]pyrimidin-6-yl)propan-1-one]	< 1000 nM
–	Cc1cc(-c2cc(OC(C)C)c(Cl)cc2Cl)nc(N)n1 [compound 2]	1000 to 4000 nM
–	Nc1nc(-c2c(Cl)cc(Cl)c3c2CCO3)c2cc(C(=O)NC3CCC3)sc2n1 [compound 65, 2-amino-N-cyclobutyl-4-(5,7-dichloro-2,3-dihydrobenzofuran-4-yl)thieno[2,3-d]pyrimidine-6-carboxamide]	< 1000 nM
–	Cc1cc(-c2c(Cl)cc(Cl)c3c2CCO3)nc(N(C)C)n1 [compound 4, 4-(5,7-Dichloro-2,3-dihydrobenzofuran-4-yl)-N,N,6-trimethylpyrimidin-2-amine]	> 10000 nM
–	COc1cc(-c2cc(SC)nc(N)n2)c(Cl)cc1Cl [compound 35]	< 1000 nM
–	N#CCCNC(=O)c1cc2c(-c3c(Cl)cc(Cl)c4c3CCO4)nc(N)nc2s1 [compound 59, 2-amino-N-(2-cyanoethyl)-4-(5,7-dichloro-2,3-dihydrobenzofuran-4-yl)thieno[2,3-d]pyrimidine-6-carboxamide]	< 1000 nM

IC50 (known Hsp90 inhibitor, biotinylated geldanamycin, read-out: IC50 (AlphaLISA assay validation))	Compound	IC50 [1]
–	Nc1nc(-c2c(Cl)cc(Cl)c3c2CCO3)c2cc(C(=O)N3CCOCC3)sc2n1 [compound 68, (2-amino-4-(5,7-dichloro-2,3-dihydrobenzofuran-4-yl)thieno[2,3-d]pyrimidin-6-yl)(morpholino)methanone]	1000 to 4000 nM
–	Nc1nc(Cl)cc(-c2c(Cl)cc(Cl)c3c2CCO3)n1 [compound 49, 4-chloro-6-(5,7-dichloro-2,3-dihydrobenzofuran-4-yl)pyrimidin-2-amine]	< 1000 nM
–	Nc1nc(O)cc(-c2c(Cl)cc(Cl)c3c2CCO3)n1 [compound 53, 2-amino-6-(5,7-dichloro-2,3-dihydrobenzofuran-4-yl)pyrimidin-4-ol]	> 10000 nM
–	Nc1nc(-c2c(Cl)cc(Cl)c3c2CCO3)c2[nH]cc(C=O)c2n1 [compound 56, 2-amino-4-(5,7-dichloro-2,3-dihydrobenzofuran-4-yl)-5H-pyrrolo[3,2-d]pyrimidine-7-carbaldehyde]	> 10000 nM
–	CN(CCC#N)C(=O)c1cc2c(-c3c(Cl)cc(Cl)c4c3CCO4)nc(N)nc2s1 [compound 71, 2-amino-N-(2-cyanoethyl)-4-(5,7-dichloro-2,3-dihydrobenzofuran-4-yl)-N-methylthieno[2,3-d]pyrimidine-6-carboxamide]	< 1000 nM
–	COCCNC(=O)c1cc2c(-c3c(Cl)cc(Cl)c4c3CCO4)nc(N)nc2s1 [compound 64, 2-amino-4-(5,7-dichloro-2,3-dihydrobenzofuran-4-yl)-N-(2-methoxyethyl)thieno[2,3-d]pyrimidine-6-carboxamide]	< 1000 nM
–	Nc1nc2c(c(-c3c(Cl)cc(Cl)c4c3CCO4)n1)CCCC2 [compound 15, 4-(5,7-dichloro-2,3-dihydrobenzofuran-4-yl)-5,6,7,8-tetrahydroquinazolin-2-amine]	4000 to 10000 nM
–	CN(C)C(=O)c1cc2c(-c3c(Cl)cc(Cl)c4c3CCO4)nc(N)nc2s1 [compound 66, 2-amino-4-(5,7-dichloro-2,3-dihydrobenzofuran-4-yl)-N,N-dimethylthieno[2,3-d]pyrimidine-6-carboxamide]	< 1000 nM
–	CNc1nc(C)cc(-c2c(Cl)cc(Cl)c3c2CCO3)n1 [compound 3, 4-(5,7-Dichloro-2,3-dihydrobenzofuran-4-yl)-N,6-dimethylpyrimidin-2-amine]	> 10000 nM
–	COc1ccc(Cl)c(-c2cc(Cl)nc(N)n2)c1 [Compound 78]	1000 to 4000 nM
–	CSc1cc(-c2c(Cl)cc(Cl)c3c2CCO3)nc(N)n1 [compound 51, 4-thiomethyl-6-(5,7-dichloro-2,3-dihydrobenzofuran-4-yl)pyrimidin-2-amine]	< 1000 nM
–	Nc1nc(-c2c(Cl)cc(Cl)c3c2CCO3)c2cc(C(=O)NCC(F)(F)F)sc2n1 [compound 61, 2-amino-4-(5,7-dichloro-2,3-dihydrobenzofuran-4-yl)-N-(2,2,2-trifluoroethyl)thieno[2,3-d]pyrimidine-6-carboxamide]	< 1000 nM
–	Nc1nc(-c2c(Cl)cc(Cl)c3c2CCO3)c2cc(C(=O)NCCO)sc2n1 [compound 60, 2-amino-4-(5,7-dichloro-2,3-dihydrobenzofuran-4-yl)-N-(2-hydroxyethyl)thieno[2,3-d]pyrimidine-6-carboxamide]	< 1000 nM
–	CC(C)(O)c1cc2c(-c3c(Cl)cc(Cl)c4c3CCO4)nc(N)nc2s1 [compound 77, 2-(2-amino-4-(5,7-dichloro-2,3-dihydrobenzofuran-4-yl)thieno[2,3-d]pyrimidin-6-yl)propan-2-ol]	1000 to 4000 nM
–	Nc1nc(-c2c(Cl)cc(Cl)c3c2CCO3)cc(C(F)(F)F)n1 [compound 50, 4-trifluoromethyl-6-(5,7-dichloro-2,3-dihydrobenzofuran-4-yl)pyrimidin-2-amine]	1000 to 4000 nM
–	Nc1nc(Cl)c(N)c(-c2c(Cl)cc(Cl)c3c2CCO3)n1 [compound 52, 4-chloro-6-(5,7-dichloro-2,3-dihydrobenzofuran-4-yl)pyrimidine-2,5-diamine]	< 1000 nM
–	Cn1ccc2c(-c3c(Cl)cc(Cl)c4c3CCO4)nc(N)nc21 [compound 30]	> 10000 nM
–	COC(=O)n1ccc2nc(N)nc(-c3c(Cl)cc(Cl)c4c3CCO4)c21 [compound 54, Methyl 2-amino-4-(5,7-dichloro-2,3-dihydrobenzofuran-4-yl)-5H-pyrrolo[3,2-d]pyrimidine-5-carboxylate]	> 10000 nM
–	Nc1nc(-c2c(Cl)cc(Cl)c3c2CCO3)c2cc(C(=O)NCCN3CCCC3)sc2n1 [compound 58, 2-amino-4-(5,7-dichloro-2,3-dihydrobenzofuran-4-yl)-N-(2-(pyrrolidin-1-yl)ethyl)thieno[2,3-d]pyrimidine-6-carboxamide]	< 1000 nM
–	CN(CC(F)(F)F)C(=O)c1cc2c(-c3c(Cl)cc(Cl)c4c3CCO4)nc(N)nc2s1 [compound 70, 2-amino-4-(5,7-dichloro-2,3-dihydrobenzofuran-4-yl)-N-methyl-N-(2,2,2-trifluoroethyl)thieno[2,3-d]pyrimidine-6-carboxamide]	4000 to 10000 nM
–	COc1cc(-c2nc(N)nc3c(Br)c[nH]c23)c(Cl)cc1Cl [compound 57, 7-bromo-4-(2,4-dichloro-5-methoxyphenyl)-5H-pyrrolo[3,2-d]pyrimidin-2-amine]	> 10000 nM
–	COc1cc(-c2nc(N)nc(-c3cc(OC)c(Cl)cc3Cl)n2)c(Cl)cc1Cl [compound 37]	> 10000 nM
